According to US20260193180A1, “AUTOPHAGY INDUCING COMPOUNDS AND USES THEREOF” (SAMSARA THERAPEUTICS INC., priority 2022, published 2026):
Structures can show the parent of a compound that is named as a salt.

Tested on: Human osteosarcoma U2OS cells
Test: Acidic vesicle formation (lysosome/autolysosome staining, LysoView 633 / LysoTracker Deep Red), stimulation of autophagy
Assay type: cell-based
Settings: 24 hours; for activation at 0.8 µM: read-out: Activity (percentage increase in acidic vesicle formation over the DMSO-treated control); for activation at 10 µM: read-out: increase in acidic vesicle formation over the DMSO-treated control
Experimental: Lysosomes play a fundamental role in the autophagic pathway by fusing with autophagosomes and creating ‘autolysosomes’ in order to digest their contents. Stimulation of lysosome and autolysosome formation by a compound is indicative of a stimulation of autophagy. The ability of compounds to stimulate lysosome and autolysosome formation, and thus autophagy, in live cells was assessed via fluorescent microscopy using various fluorescent stains for labelling and tracking acidic organelles (including lysosomes and autolysosomes) such as: LysoView™ 650 (70059 and 70059-T, Biotium), LysoView™633 (70058 and 70058-T, Biotium) and LysoTracker™ Deep Red (L12492, ThermoFisher Scientific). The cellular phenotype was quantitatively assessed for the induction of acidic vesicle formation and compared to a non-treated control, thus providing a measure of the ability of the compound under investigation to stimulate autophagy.
Representative procedure using LysoView™633 dye or LysoTracker™ Deep Red dye: Human osteosarcoma U2OS cells (40,000 cells/well) were seeded in a 24 well glass bottom plate (Sensoplate, Greiner Bio-One) and were incubated overnight in a humidified atmosphere at 37° C. and 5% CO2. Cells were grown in DMEM (Gibco) supplemented with 10% Fetal Bovine Serum (FBS) and 100 units/ml penicillin and 100 μg/ml streptomycin (Invitrogen). After the attachment period, cells were treated with different compounds of interest (at various concentrations in DMSO) or DMSO (non-treated control) in cell culture medium and were incubated for 24 hours. Compound-containing medium was removed and cells were incubated with pre-warmed cell culture medium containing 1× LysoView™ 633 (70058 and 70058-T, Biotium) or 50 nM LysoTracker™ Deep Red (L12492, ThermoFisher Scientific) for 45 minutes at 37° C. Finally, cell nuclei were stained for 10 minutes using Hoechst 33342 (1 μg/mL) and then the medium was replaced with fresh medium. The 24 well plate was then fitted into a heated stage on the microscope and cells maintained at 37° C. Images were captured using appropriate filter set for Cy5 and DAPI detection with the EVOS M7000 Microscope (ThermoFisher Scientific). The cellular phenotype was visually assessed for the induction of acidic vesicle formation relative to the non-treated control; multiple images were acquired and analysed using ImageJ or Cell Profiler.

| SMILES | activation at 0.8 µM [%] | activation at 10 µM [%] |
| --- | --- | --- |
| CCCOc1ccc(Cl)cc1CN1CC[C@@H](CN)C1 [Compound 3, (S)-(1-(5-chloro-2-propoxybenzyl)pyrrolidin-3-yl)methanamine hydrochloride] | 30 to 50 | ≥ 25 |
| CCOc1cc(C#N)c(Cl)cc1CN1CC[C@@H](CN)C1 [Compound 61, (S)-4-((3-(aminomethyl)pyrrolidin-1-yl)methyl)-2-chloro-5-ethoxybenzonitrile hydrochloride] |  | ≥ 25 |
| CCOc1ccc(Cl)cc1CCN1CCO[C@@H](CN)C1 [Compound 63, (S)-(4-(5-chloro-2-ethoxyphenethyl)morpholin-2-yl)methanamine hydrochloride] |  | ≥ 25 |
| NC[C@@H]1CCCN(Cc2cc(Cl)ccc2OCC2CC2)C1 [Compound 8, (S)-(1-(5-chloro-2-(cyclopropylmethoxy)benzyl)piperidin-3-yl)methanamine hydrochloride] | 10 to 30 | ≥ 25 |
| CCOc1ccc(Cl)cc1CN1CCC[C@@H]1CN [Compound 14, (R)-(1-(5-chloro-2-ethoxybenzyl)pyrrolidin-2-yl)methanamine hydrochloride] |  | ≥ 25 |
| CCCOc1ccc(Cl)cc1CCN1CC[C@@H](CN)C1 [Compound 48, (S)-(1-(5-chloro-2-propoxyphenethyl)pyrrolidin-3-yl)methanamine hydrochloride] | 10 to 30 | ≥ 25 |
| COCCOc1ccc(Cl)cc1CN1CC[C@@H](CN)C1 [Compound 54, (S)-(1-(5-chloro-2-(2-methoxyethoxy)benzyl)pyrrolidin-3-yl)methanamine hydrochloride] |  | ≥ 25 |
| NC[C@@H]1CCN(CCc2cc(Cl)ccc2OCC2CC2)C1 [Compound 44, (S)-(1-(5-chloro-2-(cyclopropylmethoxy)phenethyl)pyrrolidin-3-yl)methanamine hydrochloride] | 50 to 100 | ≥ 25 |
| CCOc1ccc(CCN2CCC[C@@H](CN)C2)cc1Cl [Compound 67, (S)-(1-(3-chloro-4-ethoxyphenethyl)piperidin-3-yl)methanamine hydrochloride] |  | ≥ 25 |
| NC[C@@H]1CCN(Cc2cc(Cl)c(Cl)cc2OCC2CC2)C1 [Compound 6, (S)-(1-(4,5-dichloro-2-(cyclopropylmethoxy)benzyl)pyrrolidin-3-yl)methanamine hydrochloride] | 50 to 100 | ≥ 25 |
| CCOc1cc(Cl)cc(CN2CC[C@@H](CN)C2)c1 [Compound 31, (S)-(1-(3-chloro-5-ethoxybenzyl)pyrrolidin-3-yl)methanamine hydrochloride] | > 100 | ≥ 25 |
| CCOc1ccc(CN2CCC(CN)C2)cc1Cl (stereo not shown) [Compound 39, (1-(3-chloro-4-ethoxybenzyl)pyrrolidin-3-yl)methanamine hydrochloride] | 30 to 50 | ≥ 25 |
| CCOc1ccc(Cl)cc1CN1CC[C@@H](CNC)C1 [Compound 51, (S)-1-(1-(5-chloro-2-ethoxybenzyl)pyrrolidin-3-yl)-N-methylmethanamine] |  | ≥ 25 |
| CCOc1ccc(Cl)c(Cl)c1CCN1CC[C@@H](CN)C1 [Compound 34, (S)-(1-(2,3-dichloro-6-ethoxyphenethyl)pyrrolidin-3-yl)methanamine hydrochloride] |  | ≥ 25 |
| CCOc1ccc(Cl)cc1CN1CC[C@H](CN)C1 [Compound 56, (R)-(1-(5-chloro-2-ethoxybenzyl)pyrrolidin-3-yl)methanamine hydrochloride] | > 100 | ≥ 25 |
| CCOc1ccc(Cl)cc1CN1CCC[C@H](N)C1 [Compound 16, (S)-1-(5-chloro-2-ethoxybenzyl)piperidin-3-amine hydrochloride] |  | ≥ 25 |
| CCOc1ccc(Cl)cc1CN1CCN(CC)CC1 [Compound 10, 1-(5-chloro-2-ethoxybenzyl)-4-ethylpiperazine] | 10 to 30 | ≥ 25 |
| NC[C@H]1CCN(Cc2cc(Cl)ccc2OCCO)C1 [Compound 24, (R)-2-(2-((3-(aminomethyl)pyrrolidin-1-yl)methyl)-4-chlorophenoxy)ethan-1-ol hydrochloride] |  | ≥ 25 |

| SMILES | activation at 0.8 µM [%] | activation at 10 µM [%] |
| --- | --- | --- |
| CCOc1cc(Cl)c(Cl)cc1CN1CC[C@@H](CN)C1 [Compound 5, (S)-(1-(4,5-dichloro-2-ethoxybenzyl)pyrrolidin-3-yl)methanamine hydrochloride] | 30 to 50 | ≥ 25 |
| CC(C)COc1ccc(Cl)cc1CN1CC[C@@H](CN)C1 [Compound 52, (S)-(1-(5-chloro-2-isobutoxybenzyl)pyrrolidin-3-yl)methanamine hydrochloride] | 10 to 30 | ≥ 25 |
| CCOc1ccc(Cl)cc1CN1CCOC(CN)C1 (stereo not shown) [Compound 41, (4-(5-chloro-2-ethoxybenzyl)morpholin-2-yl)methanamine hydrochloride] | 10 to 30 | ≥ 25 |
| CCCCOc1ccc(Cl)cc1CN1CC[C@H](CN)C1 [Compound 26, (R)-(1-(2-butoxy-5-chlorobenzyl)pyrrolidin-3-yl)methanamine hydrochloride] | > 100 | ≥ 25 |
| CCOc1cc(Cl)c(Cl)cc1CCN1CC[C@@H](CN)C1 [Compound 35, (S)-(1-(4,5-dichloro-2-ethoxyphenethyl)pyrrolidin-3-yl)methanamine hydrochloride] |  | ≥ 25 |
| CCOc1ccc(OC(F)(F)F)cc1CN1CCN[C@@H](C)C1 [Compound 38, (S)-1-(2-ethoxy-5-(trifluoromethoxy)benzyl)-3-methylpiperazine hydrochloride] | 10 to 30 | ≥ 25 |
| CCOc1ccc(C(F)(F)F)cc1CN1CCN[C@@H](C)C1 [Compound 1, (S)-1-(2-ethoxy-5-(trifluoromethyl)benzyl)-3-methylpiperazine hydrochloride] |  | ≥ 25 |
| CCOc1ccc(Cl)cc1CCN1CC[C@@H](CN)C1 [Compound 49, (S)-(1-(5-chloro-2-ethoxyphenethyl)pyrrolidin-3-yl)methanamine hydrochloride] |  | ≥ 25 |
| CCOc1ccc(Cl)cc1CN1CCO[C@@H](CN)C1 [Compound 28, (S)-(4-(5-chloro-2-ethoxybenzyl)morpholin-2-yl)methanamine hydrochloride] | 10 to 30 | ≥ 25 |
| CCOc1cc(F)c(CN2CC[C@@H](CN)C2)cc1Cl [Compound 58, (S)-(1-(5-chloro-4-ethoxy-2-fluorobenzyl)pyrrolidin-3-yl)methanamine hydrochloride] |  | ≥ 25 |
| CCOc1cc(F)c(F)cc1CN1CC[C@H](CN)C1 [Compound 21, (R)-(1-(2-ethoxy-4,5-difluorobenzyl)pyrrolidin-3-yl)methanamine hydrochloride] |  | ≥ 25 |
| CCOc1ccc(Cl)cc1CN1CCN(C(C)C)CC1 [Compound 18, 1-(5-chloro-2-ethoxybenzyl)-4-isopropylpiperazine] | 10 to 30 | ≥ 25 |
| NC[C@@H]1CCN(Cc2cc(Cl)cc3c2OCO3)C1 [Compound 55, (S)-(1-((6-chlorobenzo[d][1,3]dioxol-4-yl)methyl)pyrrolidin-3-yl)methanamine hydrochloride] | > 100 | ≥ 25 |
| C[C@H]1CN(Cc2cc(Cl)ccc2OCC2CC2)CCN1 [Compound 46, (S)-1-(5-chloro-2-(cyclopropylmethoxy)benzyl)-3-methylpiperazine hydrochloride] | 10 to 30 | ≥ 25 |
| CCOc1ccc(CN2CC[C@@H](CN)C2)c(F)c1Cl [Compound 57, (S)-(1-(3-chloro-4-ethoxy-2-fluorobenzyl)pyrrolidin-3-yl)methanamine hydrochloride] |  | ≥ 25 |
| CCOc1ccc(Cl)cc1CN1CCC[C@@H](N)C1 [Compound 15, (R)-1-(5-chloro-2-ethoxybenzyl)piperidin-3-amine hydrochloride] | 10 to 30 | ≥ 25 |
| CCOc1ccc(Cl)cc1CN1CCC[C@H]1CN [Compound 13, (S)-(1-(5-chloro-2-ethoxybenzyl)pyrrolidin-2-yl)methanamine hydrochloride] |  | ≥ 25 |
| N#Cc1ccc(OCC2CC2)c(CCN2CC[C@@H](CN)C2)c1 [Compound 66, (S)-3-(2-(3-(aminomethyl)pyrrolidin-1-yl)ethyl)-4-(cyclopropylmethoxy)benzonitrile hydrochloride] |  | ≥ 25 |
